# Experimental data taken from patent US9284307B2, “Macrocyclic serine protease inhibitors” (Idenix Pharmaceuticals LLC, priority 2009, dated 2016).
# What was measured:
# Type in all cases: cell-based
# [1] = tested on: HCV luciferase-bearing wild-type replicon in cured GS4.1 cells; assay: Luciferase replicon transient transfection assay, wild-type replicon
# Experimental: (§1) The luciferase replicon transient transfection assay measures the ability of a test compound to inhibit the replication of a transiently-transfected HCV luciferase-bearing wild-type or mutant replicon in cured human hepatoma cells (cured GS4.1). The mutant replicons bear a specific single-site mutation in NS3 that is known to confer resistance to protease inhibitors currently in development. The inhibition of HCV replication was measured by quantification of luciferase protein expression. This assay has been validated using a panel of replicons bearing known protease inhibitor resistance mutations and their respective reference compounds. Briefly, subconfluent cured GS4.1 cells in OptiBuffer (ThermoElectron Corp.) were electroporated with 40 μg of wild-type or mutant luciferase-bearing HCV replicon RNA. The cells were then seeded in 96-well opaque white plates at 2.4×10^4 cells/well in 150 μL/well and incubated for 4 hours at 37° C./5% CO2. […] The plates were agitated on a rotating platform at room temperature for 3 minutes and read in a Victor^3V microplate reader (Perkin-Elmer) using a 700 nm cut-off filter with a 1 second read time. EC50 values were calculated from dose response curves from the resulting best-fit equations determined by Microsoft Excel and XLfit 4.1 software.
# [2] = tested on: HCV luciferase-bearing mutant replicon, NS3 D168V, in cured GS4.1 cells; assay: Luciferase replicon transient transfection assay, D168V mutant replicon
# Experimental: as §1
# [3] = tested on: HCV luciferase-bearing mutant replicon, NS3 A156T, in cured GS4.1 cells; assay: Luciferase replicon transient transfection assay, A156T mutant replicon
# Experimental: as §1
smiles,measurement,setting,value
COc1ccc2c(O[C@H]3CC[C@H]4C(=O)N(C)CCCC/C=C\[C@@H]5C[C@@]5(C(=O)NS(=O)(=O)C5(C)CC5)NC(=O)[C@@H]4C3)cc(-c3nc(C(F)(F)F)cs3)nc2c1C [Compound 51],"Fold Change, Wild Type replicon","[1]; EC50 fold change, wild-type replicon",1
same,EC50,"[1]; Hepatitis C virus, 96 h, read-out: EC50(nm), Wild Type replicon",0.00035 to 0.0011 µM
same,"Fold Change, D168V replicon","[2]; EC50 fold change, D168V replicon",1000-3000
same,EC50,"[2]; Hepatitis C virus, 96 h, read-out: EC50(nm), D168V replicon",2 to 2.75 µM
same,"Fold Change, A156T replicon","[3]; EC50 fold change, A156T replicon",20-95
same,EC50,"[3]; Hepatitis C virus, 96 h, read-out: EC50(nm), A156T replicon",0.025 to 0.04 µM
